Tested on: clinically stable subjects with schizophrenia
Experiment: Clinical Study A (Phase 2a, placebo-controlled): MATRICS Consensus Cognitive Battery (MCCB)
Type: in vivo, human
Details: for MCCB Reasoning and Problem Solving: Difference from Placebo LS Mean (SE) of Difference / MCCB Reasoning and Problem Solving: LS Mean (SE) of Change from Baseline / MCCB Reasoning and Problem Solving: Observed Mean (SD) of change from baseline / MCCB Attention/Vigilance: Difference from Placebo LS Mean (SE) of Difference / MCCB Attention/Vigilance: LS Mean (SE) of Change from Baseline / MCCB Attention/Vigilance: Observed Mean (SD) of change from baseline / MCCB Social Cognition: Difference from Placebo LS Mean (SE) of Difference / MCCB Social Cognition: LS Mean (SE) of Change from Baseline / MCCB Social Cognition: Observed Mean (SD) of change from baseline / MCCB Speed of Processing: Difference from Placebo LS Mean (SE) of Difference / MCCB Speed of Processing: LS Mean (SE) of Change from Baseline / MCCB Speed of Processing: Observed Mean (SD) of change from baseline / MCCB Verbal Learning: Difference from Placebo LS Mean (SE) of Difference / MCCB Verbal Learning: LS Mean (SE) of Change from Baseline / MCCB Verbal Learning: Observed Mean (SD) of change from baseline / MCCB Visual Learning: Difference from Placebo LS Mean (SE) of Difference / MCCB Visual Learning: LS Mean (SE) of Change from Baseline / MCCB Visual Learning: Observed Mean (SD) of change from baseline / MCCB Working Memory: Difference from Placebo LS Mean (SE) of Difference / MCCB Working Memory: LS Mean (SE) of Change from Baseline / MCCB Working Memory: Observed Mean (SD) of change from baseline: ITT
From the text: A Phase 2a proof-of-concept (POC) study in clinically stable subjects with schizophrenia who were clinically stable and received stable doses of atypical antipsychotic therapy. The study was a Phase 2, multi-center, randomized, double-blind, placebo-controlled, parallel group study designed to evaluate the safety and efficacy of doses of (4s)-4-(5-phenyl-1,3,4-thiadiazol-2-yloxy)-1-azatricyclo[3.3.1.1^3,7]decane (Compound A) in clinically stable male and female subjects (ages 20 to 55, inclusive) with a Diagnostic and Statistical Manual of Mental Disorders Fourth Edition, Text Revision (DSM-IV-TR) diagnosis of schizophrenia. Psychiatric diagnoses were confirmed using the Mini-International Neuropsychiatric Interview (MINI) version 6.0.0. The criteria for clinical stability was determined by a combination of retrospective data (over the 4 months prior to the start of Screening, which will be supported by clinical records, patient, identified responsible contact person, and physician interviews), and prospective data assessed during the Prospective Stabilization Period of 28 to 42 days duration.
The study was a Phase 2, multi-center, randomized, double-blind, placebo-controlled, parallel group study designed to evaluate the safety and efficacy of doses of (4s)-4-(5-phenyl-1,3,4-thiadiazol-2-yloxy)-1-azatrieyclo[3.3.1.1^3,7]decane, which is also recognized as Compound A, in treating cognitive deficits in subjects with schizophrenia who were clinically stable and receiving one or two atypical antipsychotic medications. Study drug was administered orally.
The study consisted of a screening period of at least 28 and up to 42 days, a 84-day outpatient treatment period, a 14-day post-treatment period, and a post-treatment follow-up period. The screening period consisted of three visits: Screening Visit 1, Screening Visit 2, and Day −1. Upon completion of Day −1 procedures, eligible subjects were randomized through an Interactive Voice Response/Interactive Web-Based (IVR/IWB) system. Subjects were randomized in an equal ratio to one of three treatment groups (placebo, 10 mg Compound A, or 25 mg Compound A).
Subjects were randomized in a 1:1:1 ratio with placebo, 10 mg QD Compound A, of 25 mg Compound A. Each subject was instructed to take study drug once-daily in the morning for 12 weeks. Each daily dose was preferably taken with food. The subject and investigator were blinded to the treatment assignment throughout the study. The treatment assignments for the study subjects are shown below in Table 1.
The primary endpoint was the MCCB composite score, and the primary endpoint analysis was the change on the MCCB composite score from baseline to endpoint versus placebo. Other secondary measures included the MCCB domains, the NSA-16, the CANTAB cognition battery (measured at different time points from the MCCB), and the UPSA-2. The Positive and Negative Syndrome Scale (PANSS) was included to document stability in schizophrenia symptomatology.
The MCCB was developed by a consortium of academic, industry, the Food and Drug Administration (FDA) and National Institute of Mental Health ([…]) members called Measurement and Treatment Research to Improve Cognition in Schizophrenia (MATRICS). The battery was established in a multiple phase process that involved experts identifying cognitive tests in the literature that had shown deficits in schizophrenia, use of factor analysis to identify key domains of cognitive deficits in schizophrenia, and then empirically identifying the best tests for each domain based on reliability, validity and feasibility for use in clinical trials. The FDA has endorsed the MCCB as an appropriate outcome measure for Phase 3 CDS trials. […]

c1ccc(-c2nnc(O[C@@H]3C4CC5C[C@H]3C[N@](C5)C4)s2)cc1 [Compound A, (4s)-4-(5-phenyl-1,3,4-thiadiazol-2-yloxy)-1-azatricyclo[3.3.1.1^3,7]decane]
MCCB Reasoning and Problem Solving: Difference from Placebo LS Mean (SE) of Difference (10 mg QD, Change to Week 2): 1.24 (1.18) T-score
MCCB Reasoning and Problem Solving: LS Mean (SE) of Change from Baseline (10 mg QD, Change to Week 2): 1.99 (0.84) T-score
MCCB Reasoning and Problem Solving: Observed Mean (SD) of change from baseline (10 mg QD, Change to Week 2): 1.70 (6.03) T-score
MCCB Attention/Vigilance: Difference from Placebo LS Mean (SE) of Difference (10 mg QD, Change to Week 6): 1.29 (1.35) T-score
MCCB Attention/Vigilance: LS Mean (SE) of Change from Baseline (10 mg QD, Change to Week 6): 0.49 (0.98) T-score
MCCB Attention/Vigilance: Observed Mean (SD) of change from baseline (10 mg QD, Change to Week 6): 0.83 (7.62) T-score
MCCB Reasoning and Problem Solving: Difference from Placebo LS Mean (SE) of Difference (10 mg QD, Change to Week 6): 0.53 (1.03) T-score
MCCB Reasoning and Problem Solving: LS Mean (SE) of Change from Baseline (10 mg QD, Change to Week 6): 0.49 (0.75) T-score
MCCB Reasoning and Problem Solving: Observed Mean (SD) of change from baseline (10 mg QD, Change to Week 6): 0.08 (5.57) T-score
MCCB Social Cognition: Difference from Placebo LS Mean (SE) of Difference (10 mg QD, Change to Week 6): −0.46 (1.34) T-score
MCCB Social Cognition: LS Mean (SE) of Change from Baseline (10 mg QD, Change to Week 6): 1.04 (0.97) T-score
MCCB Social Cognition: Observed Mean (SD) of change from baseline (10 mg QD, Change to Week 6): 1.14 (7.87) T-score
MCCB Speed of Processing: Difference from Placebo LS Mean (SE) of Difference (10 mg QD, Change to Week 6): 0.74 (1.04) T-score
MCCB Speed of Processing: LS Mean (SE) of Change from Baseline (10 mg QD, Change to Week 6): 1.13 (0.74) T-score
MCCB Speed of Processing: Observed Mean (SD) of change from baseline (10 mg QD, Change to Week 6): 1.00 (5.49) T-score
MCCB Verbal Learning: Difference from Placebo LS Mean (SE) of Difference (10 mg QD, Change to Week 6): 0.24 (1.12) T-score
MCCB Verbal Learning: LS Mean (SE) of Change from Baseline (10 mg QD, Change to Week 6): 0.31 (0.82) T-score
MCCB Verbal Learning: Observed Mean (SD) of change from baseline (10 mg QD, Change to Week 6): 0.68 (7.99) T-score
MCCB Visual Learning: Difference from Placebo LS Mean (SE) of Difference (10 mg QD, Change to Week 6): 1.74 (1.57) T-score
MCCB Visual Learning: LS Mean (SE) of Change from Baseline (10 mg QD, Change to Week 6): 1.59 (1.13) T-score
MCCB Visual Learning: Observed Mean (SD) of change from baseline (10 mg QD, Change to Week 6): 1.35 (9.36) T-score
MCCB Working Memory: Difference from Placebo LS Mean (SE) of Difference (10 mg QD, Change to Week 6): 0.86 (1.03) T-score
MCCB Working Memory: LS Mean (SE) of Change from Baseline (10 mg QD, Change to Week 6): 0.35 (0.75) T-score
MCCB Working Memory: Observed Mean (SD) of change from baseline (10 mg QD, Change to Week 6): 0.27 (5.15) T-score
MCCB Attention/Vigilance: Difference from Placebo LS Mean (SE) of Difference (10 mg QD, Change to Week 12): 2.63 (1.49) T-score
MCCB Attention/Vigilance: LS Mean (SE) of Change from Baseline (10 mg QD, Change to Week 12): 0.64 (1.06) T-score
MCCB Attention/Vigilance: Observed Mean (SD) of change from baseline (10 mg QD, Change to Week 12): 1.15 (8.46) T-score
MCCB Social Cognition: Difference from Placebo LS Mean (SE) of Difference (10 mg QD, Change to Week 12): 0.40 (1.52) T-score
MCCB Social Cognition: LS Mean (SE) of Change from Baseline (10 mg QD, Change to Week 12): 0.99 (1.08) T-score
MCCB Social Cognition: Observed Mean (SD) of change from baseline (10 mg QD, Change to Week 12): 1.38 (6.51) T-score
MCCB Speed of Processing: Difference from Placebo LS Mean (SE) of Difference (10 mg QD, Change to Week 12): 1.08 (1.20) T-score
MCCB Speed of Processing: LS Mean (SE) of Change from Baseline (10 mg QD, Change to Week 12): 2.36 (0.85) T-score
MCCB Speed of Processing: Observed Mean (SD) of change from baseline (10 mg QD, Change to Week 12): 2.33 (6.05) T-score
MCCB Verbal Learning: Difference from Placebo LS Mean (SE) of Difference (10 mg QD, Change to Week 12): 0.61 (1.10) T-score
MCCB Verbal Learning: LS Mean (SE) of Change from Baseline (10 mg QD, Change to Week 12): 1.08 (0.79) T-score
MCCB Verbal Learning: Observed Mean (SD) of change from baseline (10 mg QD, Change to Week 12): 1.28 (7.06) T-score
MCCB Visual Learning: Difference from Placebo LS Mean (SE) of Difference (10 mg QD, Change to Week 12): 0.73 (1.59) T-score
MCCB Visual Learning: LS Mean (SE) of Change from Baseline (10 mg QD, Change to Week 12): 0.29 (1.12) T-score
MCCB Visual Learning: Observed Mean (SD) of change from baseline (10 mg QD, Change to Week 12): 0.05 (8.06) T-score
MCCB Working Memory: Difference from Placebo LS Mean (SE) of Difference (10 mg QD, Change to Week 12): 0.80 (1.18) T-score
MCCB Working Memory: LS Mean (SE) of Change from Baseline (10 mg QD, Change to Week 12): 0.92 (0.84) T-score
MCCB Working Memory: Observed Mean (SD) of change from baseline (10 mg QD, Change to Week 12): 0.83 (7.04) T-score
MCCB domains with dose response relationship (10 mg and 25 mg, exception reasoning): 6 of the 7 domains
MCCB composite score: LS mean change from baseline (10 mg, baseline to Week 6, MNIRIVI analysis, placebo LS mean +0.49): +1.25
MCCB Reasoning and Problem Solving: Difference from Placebo LS Mean (SE) of Difference (25 mg QD, Change to Week 2): 1.20 (1.24) T-score

— patent US20130317055A1, “NEURONAL NICOTINIC AGONIST AND METHODS OF USE” (ABBVIE INC., priority 2012, published 2013)
